# Assay results: PubChem BioAssay AID330 (DTP/NCI, 2004)
# Several values for one entry are separate records, joined by “and”; a condition that tells them apart may be missing. Identical values can stand only once. Inconclusive results and toxic doses are left out.
# Test system: P388 leukemia ip, CD2F1 mice, survival T/C
# Experiment: NCI In Vivo Anticancer Drug Screen. Data for tumor model P388 Leukemia (intraperitoneal) in CD2F1 (CDF1) mice
# Details: endpoint: median survival time, higher = longer survival
# Outline: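 Mice carrying the transplanted tumor received test compound or vehicle. Survival was recorded in each group, and the value is the treated-group measurement divided by that of the vehicle-treated control group.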
# [1] = dose: 50.0 mg/kg/injection, schedule: Q01DX005 (ip), vehicle: Klucel (hydroxypropylcellulose) (HPC)
# [2] = dose: 100.0 mg/kg/injection, schedule: Q01DX005 (ip), vehicle: Klucel (hydroxypropylcellulose) (HPC)
# [3] = dose: 200.0 mg/kg/injection, schedule: Q01DX005 (ip), vehicle: Klucel (hydroxypropylcellulose) (HPC)
# [4] = dose: 6.25 mg/kg/injection, schedule: Q01DX009 (ip), vehicle: saline
# [5] = dose: 12.5 mg/kg/injection, schedule: Q01DX009 (ip), vehicle: saline
# [6] = dose: 25.0 mg/kg/injection, schedule: Q01DX009 (ip), vehicle: saline
# [7] = dose: 100.0 mg/kg/injection, schedule: Q01DX009 (ip), vehicle: saline
# [8] = dose: 100.0 mg/kg/injection, schedule: Q04DX003 (ip), vehicle: saline with Tween-80
# [9] = dose: 200.0 mg/kg/injection, schedule: Q04DX003 (ip), vehicle: saline with Tween-80
# [10] = dose: 60.0 mg/kg/injection, schedule: Q01DX005 (ip), vehicle: saline with Tween-80
# [11] = dose: 120.0 mg/kg/injection, schedule: Q01DX005 (ip), vehicle: saline with Tween-80
# [12] = dose: 240.0 mg/kg/injection, schedule: Q01DX005 (ip), vehicle: saline with Tween-80
# [13] = dose: 50.0 mg/kg/injection, schedule: Q01DX009 (ip), vehicle: saline with Tween-80
# [14] = dose: 100.0 mg/kg/injection, schedule: Q01DX009 (ip), vehicle: saline with Tween-80
# [15] = dose: 200.0 mg/kg/injection, schedule: Q01DX009 (ip), vehicle: saline with Tween-80
# [16] = dose: 100.0 mg/kg/injection, schedule: Q01DX009 (ip), vehicle: Klucel (hydroxypropylcellulose) (HPC)
# [17] = dose: 200.0 mg/kg/injection, schedule: Q01DX009 (ip), vehicle: Klucel (hydroxypropylcellulose) (HPC)
# [18] = dose: 50.0 mg/kg/injection, schedule: Q01DX009 (ip), vehicle: Klucel (hydroxypropylcellulose) (HPC)
smiles,measurement,setting,value
O=C(Nc1ccccc1)SCCSC(=S)N1CCCC1,T/C,[1],103 % of control
same,T/C,[2],105 % of control
same,T/C,[3],105 % of control
COc1ccc(NN=O)nc1Br,T/C,"dose: 3.12 mg/kg/injection, schedule: Q01DX009 (ip), vehicle: saline",108 % of control
same,T/C,[4],108 % of control
same,T/C,[5],108 % of control and 109 % of control
same,T/C,[6],110 % of control and 120 % of control
same,T/C,[7],157 % of control
O=C1Cc2[nH]ccc2C(=O)O1,T/C,"dose: 100.0 mg/kg/injection, schedule: Q01DX001 (ip), vehicle: saline with Tween-80",99 % of control
same,T/C,"dose: 200.0 mg/kg/injection, schedule: Q01DX001 (ip), vehicle: saline with Tween-80",90 % of control
same,T/C,"dose: 400.0 mg/kg/injection, schedule: Q01DX001 (ip), vehicle: saline with Tween-80",107 % of control
CCOC(=O)NCC(C)(C)CNC(=O)OCC,T/C,"dose: 3.13 mg/kg/injection, schedule: Q01DX009 (ip), vehicle: saline",100 % of control
same,T/C,[4],105 % of control
same,T/C,[5],105 % of control
same,T/C,[6],103 % of control
COc1ccc2nc3cc(Cl)ccc3c(Nc3ccc(NC(C)=O)cc3)c2n1,T/C,"dose: 6.25 mg/kg/injection, schedule: Q01DX009 (ip), vehicle: other",106 % of control
same,T/C,"dose: 12.5 mg/kg/injection, schedule: Q01DX009 (ip), vehicle: other",102 % of control
same,T/C,"dose: 25.0 mg/kg/injection, schedule: Q01DX009 (ip), vehicle: other",100 % of control
same,T/C,"dose: 50.0 mg/kg/injection, schedule: Q01DX009 (ip), vehicle: other",96 % of control
same,T/C,"dose: 100.0 mg/kg/injection, schedule: Q01DX009 (ip), vehicle: other",99 % of control
CCCCCCCCCCCCN(C)S(=O)(=O)c1ccc(Cl)c(N)c1,T/C,"dose: 50.0 mg/kg/injection, schedule: Q04DX003 (ip), vehicle: saline with Tween-80",95 % of control
same,T/C,[8],100 % of control
same,T/C,[9],95 % of control
CC(C)N(C(=O)COc1ccc(Cl)cc1Cl)c1ccccc1,T/C,[8],104 % of control
same,T/C,[9],100 % of control
same,T/C,"dose: 400.0 mg/kg/injection, schedule: Q04DX003 (ip), vehicle: saline with Tween-80",100 % of control
COc1ccc(C2COc3cc(O)c(O)cc3C2)cc1OC (configuration not stated),T/C,[10],101 % of control
same,T/C,[11],97 % of control
same,T/C,[12],101 % of control
CC(=O)Nc1ncnc2c(C3OC(COC(C)=O)C(OC(C)=O)C3OC(C)=O)[nH]nc12 (configuration not stated),T/C,[10],105 % of control
same,T/C,[11],95 % of control
CC(=O)c1c(CO[N+](=O)[O-])n([O-])c2ccccc2[n+]1=O,T/C,[10],106 % of control
same,T/C,[11],104 % of control
O=[N+]([O-])c1ccc(OCCSc2ccccc2)cc1,T/C,[13],90 % of control
same,T/C,[14],98 % of control
same,T/C,[15],100 % of control
CCN(CC)CCNc1c(C)ccc2cccnc12,T/C,"dose: 12.5 mg/kg/injection, schedule: Q01DX005 (ip), vehicle: saline",102 % of control
same,T/C,"dose: 25.0 mg/kg/injection, schedule: Q01DX005 (ip), vehicle: saline",93 % of control
same,T/C,"dose: 50.0 mg/kg/injection, schedule: Q01DX005 (ip), vehicle: saline",100 % of control
C=C1C(=O)C23CC1CCC2C12COC(OC(=O)CCCCCCCCCCCCC)C1C(C)(C)C(O)CC2OC3=O (configuration not stated),T/C,"dose: 7.5 mg/kg/injection, schedule: Q01DX009 (ip), vehicle: saline with Tween-80",109 % of control
same,T/C,"dose: 15.0 mg/kg/injection, schedule: Q01DX009 (ip), vehicle: saline with Tween-80",109 % of control
same,T/C,"dose: 30.0 mg/kg/injection, schedule: Q01DX009 (ip), vehicle: saline with Tween-80",100 % of control
same,T/C,"dose: 60.0 mg/kg/injection, schedule: Q01DX009 (ip), vehicle: saline with Tween-80",111 % of control
COC1/C=C/OC2(C)Oc3c(C)c(O)c4c(O)c(c(/C=N/N(C)C5OC(COC(=O)c6ccccc6)C(OC(=O)c6ccccc6)C5OC(=O)c5ccccc5)c(O)c4c3C2=O)NC(=O)C(C)=C/C=C/C(C)C(O)C(C)C(O)C(C)C(OC(C)=O)C1C (configuration not stated),T/C,"dose: 12.5 mg/kg/injection, schedule: Q01DX009 (ip), vehicle: saline with Tween-80",104 % of control
same,T/C,"dose: 25.0 mg/kg/injection, schedule: Q01DX009 (ip), vehicle: saline with Tween-80",107 % of control
same,T/C,[13],108 % of control and 112 % of control
same,T/C,[14],114 % of control
same,T/C,[15],117 % of control
CCCCOC(=O)C1C(C(=O)OCCCC)C2(Cl)C(Cl)=C(Cl)C1(Cl)C2(Cl)Cl (configuration not stated),T/C,[16],97 % of control
same,T/C,[17],104 % of control
same,T/C,"dose: 400.0 mg/kg/injection, schedule: Q01DX009 (ip), vehicle: Klucel (hydroxypropylcellulose) (HPC)",111 % of control
CCOC(=O)CNC(=O)N1COCC1(C)C,T/C,[18],95 % of control
same,T/C,[16],95 % of control
same,T/C,[17],95 % of control
COC(=O)C1CCOCCCOCCCOCCCOCCCOCCCC1=O (configuration not stated),T/C,"dose: 50.0 mg/kg/injection, schedule: Q01DX005 (ip), vehicle: saline with Tween-80",100 % of control
same,T/C,"dose: 100.0 mg/kg/injection, schedule: Q01DX005 (ip), vehicle: saline with Tween-80",105 % of control
same,T/C,"dose: 200.0 mg/kg/injection, schedule: Q01DX005 (ip), vehicle: saline with Tween-80",100 % of control
O=C(S)CC(O)(c1ccccc1)c1ccccc1,T/C,"dose: 100.0 mg/kg/injection, schedule: Q04DX003 (ip), vehicle: Klucel (hydroxypropylcellulose) (HPC)",105 % of control
same,T/C,"dose: 200.0 mg/kg/injection, schedule: Q04DX003 (ip), vehicle: Klucel (hydroxypropylcellulose) (HPC)",105 % of control
same,T/C,"dose: 400.0 mg/kg/injection, schedule: Q04DX003 (ip), vehicle: Klucel (hydroxypropylcellulose) (HPC)",101 % of control
N#CC(C(=O)C(=O)Nc1ccc(Cl)cc1)c1c(Cl)cccc1Cl (configuration not stated),T/C,"dose: 100.0 mg/kg/injection, schedule: Q04DX002 (ip), vehicle: saline with Tween-80",105 % of control
same,T/C,"dose: 200.0 mg/kg/injection, schedule: Q04DX002 (ip), vehicle: saline with Tween-80",108 % of control
same,T/C,"dose: 400.0 mg/kg/injection, schedule: Q04DX002 (ip), vehicle: saline with Tween-80",97 % of control
Nc1nc(N2CCCCC2)c2nc(Cl)n(C3OC(CO)C(O)C3O)c2n1 (configuration not stated),T/C,[10],92 % of control
same,T/C,[11],101 % of control
same,T/C,[12],100 % of control
O=C(NC(=S)Nc1ccccc1)c1ccccc1,T/C,"dose: 9.4 mg/kg/injection, schedule: Q01DX009 (ip), vehicle: Klucel (hydroxypropylcellulose) (HPC)",106 % of control
same,T/C,"dose: 18.75 mg/kg/injection, schedule: Q01DX009 (ip), vehicle: Klucel (hydroxypropylcellulose) (HPC)",101 % of control
same,T/C,"dose: 37.5 mg/kg/injection, schedule: Q01DX009 (ip), vehicle: Klucel (hydroxypropylcellulose) (HPC)",94 % of control
same,T/C,"dose: 75.0 mg/kg/injection, schedule: Q01DX009 (ip), vehicle: Klucel (hydroxypropylcellulose) (HPC)",96 % of control
COC(=O)C1=C(C)NC(C)=C(C(=O)OC)C1c1cc2ccccc2n2nnnc12,T/C,[10],95 % of control
same,T/C,[11],98 % of control
same,T/C,[12],88 % of control
COC(=O)C1=CC[C@@H]2C(C(=O)O)=CO[C@@H](OC3OC(CO)C(O)C(O)C3O)[C@H]12 (some centres not stated),T/C,"dose: 2.8 mg/kg/injection, schedule: Q01DX005 (ip), vehicle: saline + alcohol",101 % of control
same,T/C,"dose: 5.5 mg/kg/injection, schedule: Q01DX005 (ip), vehicle: saline + alcohol",99 % of control
same,T/C,"dose: 11.0 mg/kg/injection, schedule: Q01DX005 (ip), vehicle: saline + alcohol",108 % of control
same,T/C,"dose: 22.0 mg/kg/injection, schedule: Q01DX005 (ip), vehicle: saline + alcohol",100 % of control
Cc1ccc2c(c1)C=CC(C#N)N2C(=O)Oc1ccccc1 (configuration not stated),T/C,[4],99 % of control and 101 % of control
same,T/C,[5],98 % of control
same,T/C,[6],93 % of control and 96 % of control
Fc1ccccc1C(Nc1ncccn1)Nc1ncccn1,T/C,[13],88 % of control
same,T/C,"dose: 50.0 mg/kg/injection, schedule: Q01DX009 (ip), vehicle: saline",94 % of control
same,T/C,[14],87 % of control
same,T/C,[7],99 % of control
same,T/C,[15],87 % of control
same,T/C,"dose: 200.0 mg/kg/injection, schedule: Q01DX009 (ip), vehicle: saline",94 % of control
O=C1OC(=O)C2CCCC1C2,T/C,[18],108 % of control
same,T/C,[16],102 % of control
same,T/C,[17],102 % of control
CN(C)CS/C(=N\C(O)C(Cl)(Cl)Cl)NC(O)C(Cl)(Cl)Cl (configuration not stated),T/C,[1],97 % of control
same,T/C,[2],99 % of control
same,T/C,[3],99 % of control
